pKi: −log10 of the molar value. Where a name gives a salt, the structure may show the parent alone.

The target in this test is T1, 5-HT3 (Homo sapiens, UniProt P46098).
T1 sequence (P46098 24-478): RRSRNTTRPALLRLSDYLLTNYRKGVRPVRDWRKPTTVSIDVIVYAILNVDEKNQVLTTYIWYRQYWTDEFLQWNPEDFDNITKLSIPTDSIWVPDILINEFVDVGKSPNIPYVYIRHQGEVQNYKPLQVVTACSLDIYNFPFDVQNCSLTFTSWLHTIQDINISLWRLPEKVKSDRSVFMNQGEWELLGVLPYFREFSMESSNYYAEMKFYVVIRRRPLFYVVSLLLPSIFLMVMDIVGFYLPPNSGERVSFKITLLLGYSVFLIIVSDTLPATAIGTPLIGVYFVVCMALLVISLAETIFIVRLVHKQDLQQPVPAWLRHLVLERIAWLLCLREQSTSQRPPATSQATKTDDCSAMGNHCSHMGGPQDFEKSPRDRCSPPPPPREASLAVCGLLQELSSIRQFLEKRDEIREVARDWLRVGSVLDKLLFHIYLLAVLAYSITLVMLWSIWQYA
Nature of the test: Compound affinity for the human 5-HT3 receptor (Assay B), SPA radioligand binding with [9-methyl-3H]BRL-43694. Set-up: purchased Perkin Elmer. Particulars: Assay B (method B unless otherwise annotated); read-out: 5-HT3 Ki. In short, it runs like this:
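Ten competitor concentrations in duplicate; specific binding (total minus nonspecific) fitted for IC50, converted to Ki by Cheng-Prusoff.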
Broadly, the pKi is the Ki on a negative log10 scale, so that one unit is a factor of ten. `CC(C)C[C@H]1CN(Cc2ccccc2)CCN1c1nc2c(C(=O)NC3CC4CCCC(C3)N4C)cccc2o1` (stereo partly drawn) [Example 71, Endo-N-(9-Methyl-9-azabicyclo[3.3.1]nonan-3-yl)-2-((2S)-2-isobutyl-4-benzylpiperazin-1-yl)benzoxazole-4-carboxamide Hydrochloride]: the pKi is 7.31.

As to `CN1[C@@H]2CCC[C@H]1C[C@@H](NC(=O)c1cccc3oc(=S)[nH]c13)C2` [Example 72, Endo N-(9-methyl-9-azabicyclo[3.3.1]nonan-3-yl)-2-thioxo-2,3-dihydrobenzoxazole-4-carboxamide Hydrochloride], the pKi is 7.51.

For the compound `C[C@H]1CNC[C@H](C)N1c1nc2c(C(=O)NC3CC4CCCC(C3)N4C)cccc2o1` (stereo partly drawn) [Example 73, Endo-N-(9-Methyl-9-azabicyclo[3.3.1]nonan-3-yl)-2-((2S,6S)-2,6-dimethylpiperazin-1-yl)benzoxazole-4-carboxamide Hydrochloride], the pKi is 8.66.

Regarding `CC(C)C[C@H]1CN(c2nc3c(C(=O)NC4CC5CCCC(C4)N5C)cccc3o2)CCN1` (stereo partly drawn) [Example 74, Endo-N-(9-Methyl-9-azabicyclo[3.3.1]nonan-3-yl)-2-((3S)-3-isobutylpiperazine-1-yl)benzoxazole-4-carboxamide Hydrochloride], the pKi is 7.14.

Take `CC(C)[C@H]1CNCCN1c1nc2c(C(=O)NC3CC4CCCC(C3)N4C)cccc2o1` (stereo partly drawn) [Example 76, Endo-N-(9-Methyl-9-azabicyclo[3.3.1]nonan-3-yl)-2-((S)-2-isopropylpiperazin-1-yl)benzoxazole-4-carboxamide Hydrochloride]: the pKi is 8.01.

Consider `CC(C)C[C@H]1CNCCN1c1nc2c(C(=O)NC3CC4CCCC(C3)N4C)cccc2o1` (stereo partly drawn) [Example 77, Endo-N-(9-Methyl-9-azabicyclo[3.3.1]nonan-3-yl)-2-((S)-2-isobutylpiperazine-1-yl)benzoxazole-4-carboxamide Hydrochloride], for which the pKi was 8.19.

Take `CC(C)[C@H]1CN(c2nc3c(C(=O)NC4CC5CCCC(C4)N5C)cccc3o2)CCN1` (stereo partly drawn) [Example 78, Hydrochloride]: the pKi is 7.59.

As for `CN1[C@@H]2CCC[C@H]1C[C@@H](NC(=O)c1cccc3oc(N4CCn5ccnc5C4)nc13)C2` [Example 79, Endo-N-(9-Methyl-9-azabicyclo[3.3.1]nonan-3-yl)-2-(5,6-dihydroimidazo[1,2-a]pyrazin-7(8H)-yl)benzoxazole-4-carboxamide Hydrochloride], the pKi is 7.53.

Take `CN1C2CCCC1CC(NC(=O)c1cc(Cl)cc3oc(N4CCOC[C@@H]4C(C)(C)C)nc13)C2` (stereo partly drawn) [Example 80, Endo N-(9-Methyl-9-azabicyclo[3.3.1]nonan-3-yl)-2-((S)-3-tert-butylmorpholino)-6-chloro-benzoxazole-4-carboxamide Hydrochloride]: the pKi is 7.53.

Take `C[C@H]1COC[C@H](C)N1c1nc2c(C(=O)NC3CC4CCCC(C3)N4)cccc2o1` (stereo partly drawn) [Example 81, Endo-N-(9-Azabicyclo[3.3.1]nonan-3-yl)-2-((3S,5S)-3,5-dimethylmorpholino)benzoxazole-4-carboxamide Hydrochloride]: the pKi is 7.77.

`CN1[C@@H]2CCC[C@H]1C[C@@H](NC(=O)c1cccc3oc(N4CCS(=O)(=O)CC4)nc13)C2` [Example 82, Endo-N-(9-Methyl-9-azabicyclo[3.3.1]nonan-3-yl)-2-(thiomorpholine 1,1-dioxide)benzoxazole-4-carboxamide Hydrochloride]: the pKi was 6.88.

In the case of `CCN(C)c1nc2c(C(=O)N[C@@H]3CN4CCC3CC4)cccc2o1` [Example 83, (S)—N-(quinuclidine-8-yl)-2-(ethyl(methyl)amino)benzoxazole-4-carboxamide Hydrochloride], the pKi is 8.17.

In the case of `CC[C@H]1CNCCN1c1nc2c(C(=O)NC3CC4CCCC(C3)N4C)cccc2o1` (stereo partly drawn) [Example 84, Endo-N-(9-Methyl-9-azabicyclo[3.3.1]nonan-3-yl)-2-((S)-2-ethylpiperazine-1-yl)benzoxazole-4-carboxamide Hydrochloride], the pKi was 7.95.

In the case of `CC(C)N(C)c1nc2c(C(=O)N[C@@H]3CN4CCC3CC4)cccc2o1` [Example 85, (S)—N-(quinuclidine-8-yl)-2-(isopropyl(methyl)amino)benzoxazole-4-carboxamide Hydrochloride], the pKi is 7.54.

`CN1[C@@H]2CCC[C@H]1C[C@@H](NC(=O)c1cccc3oc(N4CCNC(=O)C4)nc13)C2` [Example 86, Endo-N-(9-Methyl-9-azabicyclo[3.3.1]nonan-3-yl)-2-(3-oxopiperazine-1-yl)benzoxazole-4-carboxamide Hydrochloride]: the pKi is 7.18.

As to `CC[C@H]1COC[C@H](C)N1c1nc2c(C(=O)NC3CC4CCCC(C3)N4C)cccc2o1` (stereo partly drawn) [Example 87, Endo-N-(9-Methyl-9-azabicyclo[3.3.1]nonan-3-yl)-2-((3 S,5S)-3-ethyl-5-methylmorpholino)benzoxazole-4-carboxamide Hydrochloride], the pKi is 9.00.

Regarding `C[C@H]1COC[C@H](C)N1c1nc2c(C(=O)NC3CC4COCC(C3)N4C)cccc2o1` (stereo partly drawn) [Example 88, Endo-N-(9-Methyl-3-oxa-9-azabicyclo[3.3.1]nonan-7-yl) 2-((3 S,5S)-3,5-dimethylmorpholino)benzoxazole-4-carboxamide Hydrochloride], the pKi is 7.70.

For `COC1CCN(c2nc3c(C(=O)N[C@H]4C[C@H]5CCC[C@@H](C4)N5C)cccc3o2)CC1` [Example 89, Endo-N-(9-Methyl-9-azabicyclo[3.3.1]nonan-3-yl)-2-(4-methoxypiperidin-1-yl)benzoxazole-4-carboxamide Hydrochloride], the pKi was 7.43.

Turning to `C[C@H]1COC[C@H](C)N1c1nc2c(C(=O)N[C@@H]3CN4CCC3CC4)cccc2o1` [Example 90, (S)—N-(quinuclidine-8-yl)-2-((3S,5S)-3,5-Dimethylmorpholino)benzoxazole-4-carboxamide Hydrochloride], the pKi was 8.17.

With `CN1[C@@H]2CCC[C@H]1C[C@@H](NC(=O)c1cccc3oc(N4CCC5(CC4)OCCO5)nc13)C2` [Example 91, Endo-N-(9-Methyl-9-azabicyclo[3.3.1]nonan-3-yl)-2-(1,4-dioxa-8-azaspiro[4.5]decan-8-yl)benzoxazole-4-carboxamide Hydrochloride], the pKi is 7.84.

In the case of `CN1[C@@H]2CCC[C@H]1C[C@@H](NC(=O)c1cccc3oc(N4CCC(=O)CC4)nc13)C2` [Example 92, Endo-N-(9-methyl-9-azabicyclo[3.3.1]nonan-3-yl)-2-(4-oxopiperidin-1-yl)benzoxazole-4-carboxamide Hydrochloride], the pKi was 7.67.

As to `CN1C2CCCC1CC(NC(=O)c1cccc3oc(N4CCOC[C@@H]4CO)nc13)C2` (stereo partly drawn) [Example 94, Endo-N-(9-Methyl-9-azabicyclo[3.3.1]nonan-3-yl)-2-((S)-3-(hydroxymethyl)morpholino)benzoxazole-4-carboxamide Hydrochloride], the negative logarithm of the Ki (pKi) was 7.56.

In the case of `CC1CN(c2nc3c(C(=O)N[C@H]4C[C@H]5CCC[C@@H](C4)N5C)cccc3o2)CCN1` (stereo partly drawn) [Example 95, Endo-N-(9-Methyl-9-azabicyclo[3.3.1]nonan-3-yl)-2-(3-methylpiperazin-1-yl)benzoxazole-4-carboxamide Hydrochloride], the pKi is 7.28.

In the case of `CN1C2CCCC1CC(NC(=O)c1cccc3oc(N4CCNC[C@@H]4C(C)(C)C)nc13)C2` (stereo partly drawn) [Example 96, Endo-N-(9-Methyl-9-azabicyclo[3.3.1]nonan-3-yl)-2-((S)-2-tert-butylpiperazin-1-yl)benzoxazole-4-carboxamide Hydrochloride], the negative-log Ki (pKi) was 8.12.

`C[C@H]1CN(Cc2ccccc2)C(=O)[C@H](C)N1c1nc2c(C(=O)NC3CC4CCCC(C3)N4C)cccc2o1` (stereo partly drawn) [Example 97, Endo-N-(9-Methyl-9-azabicyclo[3.3.1]nonan-3-yl)-2-((2S,6S)-4-benzyl-2,6-dimethyl-3-oxopiperazine-1-yl)benzoxazole-4-carboxamide Hydrochloride]: the pKi was 9.40.

For `C[C@H]1C(=O)NCCN1c1nc2c(C(=O)NC3CC4CCCC(C3)N4C)cccc2o1` (stereo partly drawn) [Example 98, Endo-N-(9-Methyl-9-azabicyclo[3.3.1]nonan-3-yl)-2-((S)-2-methyl-3-oxopiperazine-1-yl)benzoxazole-4-carboxamide Hydrochloride], the pKi was 7.84.

As for `C[C@H]1CNC[C@H](C)N1c1nc2c(C(=O)NC3CN4CCC3CC4)cccc2o1` (stereo partly drawn) [Example 99, Hydrochloride], the negative-log Ki (pKi) was 7.88.

For `CN1[C@@H]2CCC[C@H]1C[C@@H](NC(=O)c1cccc3oc(N4CCNCC45CCCC5)nc13)C2` [Example 100, Endo-N-(9-Methyl-9-azabicyclo[3.3.1]nonan-3-yl)-2-(6,9-diazaspiro[4.5]decan-6-yl)benzoxazole-4-carboxamide Hydrochloride], the pKi was 7.94.

In the case of `C[C@H]1COC[C@H](C)N1c1nc2c(C(=O)NC3CC4CCC(C3)N4C)cccc2o1` (stereo partly drawn) [Example 101, N-(8-Methyl-8-azabicyclo[3.2.1]octan-3-yl)-2-(3S,5S)-3,5-dimethylmorpholinobenzoxazole-4-carboxamide Hydrochloride], the pKi is 8.59.

In the case of `CN1[C@@H]2CCC[C@H]1C[C@@H](NC(=O)c1cccc3oc(N4CCNCC4(C)C)nc13)C2` [Example 102, Endo-N-(9-Methyl-9-azabicyclo[3.3.1]nonan-3-yl)-2-(2,2-dimethylpiperazin-1-yl)benzoxazole-4-carboxamide Hydrochloride], the pKi is 7.80.

The record behind these values is patent US7863271B2, “2-aminobenzoxazole carboxamides as 5HT3 modulators” (Albany Molecular Research, Inc., priority 2006, dated 2011).
